In data set [1] the test system is pERK1/2. Briefly: pERK1/2 inhibition by Western blotting in KYSE-520 cells. It is filed as cell-based. The settings on record: Homo sapiens, 16 h. As for the experimental part: (§1) HEK293, SKBR3, U2OS, MCF7 and A549 cells were grown in DMEM supplemented with 10% FBS, penicillin (50 units/mL), and streptomycin (50 μg/mL) in a 37 °C incubator containing 5% CO2. KYSE-520 and H358 cells were grown in RPMI-1640 supplemented with 10% FBS, penicillin (50 units/mL), and streptomycin (50 μg/mL) in a 37 °C incubator containing 5% CO2. For western-blot analysis, protein samples were separated by SDS-PAGE, transferred to nitrocellulose membranes, and incubated overnight at 4 °C with corresponding primary antibodies diluted in 5% BSA in phosphate-buffered saline Tween (PBST). SuperSignal™ West Pico PLUS (PI34580; Thermo Scientific) was used to visualize the antibodies in the bioanalytical imaging system (Azure Biosystems c500). Anti-p-ERK1/2 (T202/Y204) (4370), and anti-ERK1/2 (4696) were purchased from Cell Signaling Technology. Anti-GAPDH (sc-365062), anti-SHP2 (sc-7384), anti-SHP1 (sc-7289), and anti-Actin (sc-8432) antibodies were purchased from Santa Cruz. Anti-PTP1B (ab244207) antibody was purchased from Abcam. For colony formation assay, a total of approximately 200–500 cells were seeded to each well in a 12-well plate. The wells were then treated with DMSO, compound P9 and 3 at 37 °C for 3 weeks, gently washed, and stained with crystal violet.
Background: In western blotting, separated proteins are transferred to a membrane and probed.

A further data set has as its system KYSE-520 cells. As to the kind of experiment: CCK-8 cell proliferation assay. To be noted: Homo sapiens, 168 h; KYSE-520, CCK-8, 7 days; read-out: growth inhibition IC50. The data set is classed as cell-based. The method, then:
The cell proliferation inhibition EC50 was determined by CCK-8 assay. KYSE-520 cells were seeded at 5 × 10^3 cells/well in 96 well plates. After 24 h, P9 was added to the medium starting at 80 μM in a 2-fold dilution rate of 0.16 μM. After 7 days, 10 μL of CCK-8 test solution (APExBIO Technology, Houston, TX, USA) was added into each well and incubated for 2 h at 37 °C. The optical density (OD) at 450 nm was measured with a microplate reader (Molecular Device, Sunnyvale, CA, USA). The cell viability rate at different concentrations of P9 treatment was determined with Prism, version 9.5.1 (GraphPad, San Diego, CA, USA).
On the technique in general: Formazan colour is commonly taken as a measure of viable cells.

Another data set relates to KYSE-520 xenograft. As to the kind of experiment: KYSE-520 xenograft tumor growth. The settings on record: 18 days. It is filed as in vivo, mice. The method, then: (§2) Experiments on mice were carried out in accordance with the regulations of the Institutional Animal Care and Use Committees at Purdue University. All mice were housed under pathogen-free conditions in the animal facility and received autoclaved water and food. Eight to ten weeks-old Nude mice were used in the study.
(§3) For the xenograft tumor study, KYSE-520 cells were suspended in PBS and a total of 3 × 10^6 cells (100 μL) were subcutaneously implanted into both the left and right flank using a 27-gauge needle. Tumor volume was calculated using the formula V = (W^2 × L)/2 for caliper measurements. Once the tumor volume reaches 200 mm^3, daily intraperitoneal injection of either control, 25 mg/kg or 50 mg/kg of compound P9 was performed. Mice were sacrificed after injection for 18 days, and tumors were collected for biochemical analysis.

A short description of data set [2]: Tolerability and body weight in xenograft study. It is filed as in vivo. To be noted: mice, 25 mg/kg or 50 mg/kg daily IP. The method, then:
as §2, §3

Data set [3] concerns pERK1/2. Briefly: pERK1/2 level in KYSE-520 tumor homogenates (Western blot). It is filed as in vivo, mice. The settings on record: whole tumor homogenates, 50 mg/kg P9 IP. As for the experimental part:
as §1, with “For colony formation assay, a total of approximately 200–500 cells were seeded to each well in a 12-well plate. The wells were then treated with DMSO, compound P9 and 3 at 37 °C for 3 weeks, gently washed, and stained with crystal violet.” left out
(§4) For the xenograft tumor study, KYSE-520 cells were suspended in PBS and a total of 3 × 10^6 cells (100 μL) were subcutaneously implanted into both the left and right flank using a 27-gauge needle. Tumor volume was calculated using the formula V = (W^2 × L)/2 for caliper measurements. […]

Data set [4] addresses T1, SHP2 (Homo sapiens, UniProt Q06124).
T1 sequence (Q06124 1-593): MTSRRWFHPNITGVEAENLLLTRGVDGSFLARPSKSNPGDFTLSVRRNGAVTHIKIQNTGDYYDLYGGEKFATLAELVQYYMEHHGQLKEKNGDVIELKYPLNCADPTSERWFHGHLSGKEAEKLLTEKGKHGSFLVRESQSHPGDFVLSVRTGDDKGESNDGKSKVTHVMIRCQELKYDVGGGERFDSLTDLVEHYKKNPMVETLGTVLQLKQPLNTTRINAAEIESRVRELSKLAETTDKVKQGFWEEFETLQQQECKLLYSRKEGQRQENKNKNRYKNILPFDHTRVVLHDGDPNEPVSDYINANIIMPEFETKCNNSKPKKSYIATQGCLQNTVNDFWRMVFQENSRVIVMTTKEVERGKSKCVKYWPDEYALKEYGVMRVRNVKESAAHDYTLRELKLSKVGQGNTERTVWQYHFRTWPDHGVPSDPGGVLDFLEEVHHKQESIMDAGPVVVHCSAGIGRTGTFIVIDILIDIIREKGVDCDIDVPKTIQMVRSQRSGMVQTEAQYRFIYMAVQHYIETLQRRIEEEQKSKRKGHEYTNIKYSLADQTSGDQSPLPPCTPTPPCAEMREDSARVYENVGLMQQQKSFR
Briefly: SHP2 degradation by Western blotting in KYSE-520 cells. It is filed as cell-based. Also noted: endogenous in cells; host or cells: KYSE-520. The settings on record: 16 h. As for the experimental part: as §1

The target of data set [5] is T1, SHP2. Briefly: SHP2 level in KYSE-520 tumor homogenates (Western blot). Also noted: from tissue; host or cells: KYSE-520 xenograft tumour from nude mice, whole tumour homogenate. It is filed as in vivo, mice. To be noted: whole tumor homogenates, 50 mg/kg P9 IP. As for the experimental part:
as §1, with “For colony formation assay, a total of approximately 200–500 cells were seeded to each well in a 12-well plate. The wells were then treated with DMSO, compound P9 and 3 at 37 °C for 3 weeks, gently washed, and stained with crystal violet.” left out
as §4

Structures are written as SMILES. “Also recorded” adds a separate entry of the source.

In general, EC50 refers to the concentration at which the effect is half-maximal. Lower therefore signals greater potency. As a reminder, the IC50 is the concentration that inhibits the measured activity by half. One may read the DC50 as the midpoint of the concentration-degradation curve. Turning to `Cc1ncsc1-c1ccc([C@H](C)NC(=O)[C@@H]2C[C@@H](O)CN2C(=O)[C@@H](NC(=O)CCCCCCCCCN2CCN(C(=O)CCCCCC3(CN)CCN(c4cnc(Sc5cccc(Cl)c5Cl)c(N)n4)CC3)CC2)C(C)(C)C)cc1` [P9, (2S,4R)-1-((S)-2-(10-(4-(6-(1-(6-amino-5-((2,3-dichlorophenyl)thio)pyrazin-2-yl)-4-(aminomethyl)piperidin-4-yl)hexanoyl)piperazin-1-yl)decanamido)-3,3-dimethylbutanoyl)-4-hydroxy-N-((S)-1-(4-(4-methylthiazol-5-yl)phenyl)ethyl)pyrrolidine-2-carboxamide], in the data set with pERK1/2 [1], the EC50 is about 240 nM. In addition, the IC50 in the data set on KYSE-520 cells stood at 640 ± 130 nM. The “effect on tumor burden” value in the data set with KYSE-520 xenograft (25 mg/kg daily IP) is “decrease in tumor burden”; with KYSE-520 xenograft (50 mg/kg daily IP), “nearly complete tumor regression”. Further, the tolerability entry in data set [2] is on record as “well tolerated”. In data set [2] (during treatment), the animal body weight entry is listed as “preserved; also recorded: no significant effect on mice body weight”. For the same molecule, the “pERK1/2 level, % of the control group” value in the data set with pERK1/2 [3] worked out at 24 ± 12%. The molecule further registered a DC50 on SHP2 [4] of about 130 nM. In addition, at SHP2 [5], the “SHP2 level, % of the control group” value worked out at 34 ± 18%.

These data come from PMC10574094, “Discovery of a SHP2 Degrader with In Vivo Anti-Tumor Activity” (Molecules, 2023).
